Structures can show the parent of a compound that is named as a salt. Where only a bound is given, the exact number is not on record here.

What is called EC50 is the midpoint of the concentration-response curve. Higher therefore signals weaker potency.

In this experiment the target is T1, GPR40 of human origin (Homo sapiens, UniProt O14842).
T1 construct: expressed in transfected cells
Description: Agonist action on GPR40 of human origin (Ca2+ fluorescence, CHO cell strain stably expressing GPR40). It is filed as cell-based. The conditions noted are these: fluctuation of Ca2+ concentration. How it is done: A CHO cell strain stably expressing GPR40 of human origin was used to determine the agonist action of a title compound. This cell strain was seeded in a clear bottom 96 well plate at 2×10^4 cells/100 μL/well. The cell strain was cultured in a CO2 incubator overnight using a Ham's F-12 medium containing a 10% fetal bovine serum, 100 U/mL penicillin, 0.1 mg/mL streptomycin, and 400 μg/mL. Geneticin. Calcium 4 Assay Kit (Molecular Devices) was used as a fluorescent calcium indicator. One mL of 77 mg/mL probenecid (Invitrogen) was added to 100 mL of a calcium indicator solution to prepare a solution (loading solution) mixed with a 20 mM HEPES-containing Hanks' balanced salt solution (HBSS) in equal proportions. To the cells from which the culture solution was removed, 200 μL of the loading solution was added, and the cells were cultured in a CO2 incubator for 1 hour. The title compound was diluted with a 20 mM HEPES-containing HBSS and was added to the cells by 50 μL, and the fluctuation of the Ca^2+concentration was measured by an intracellular ion analyzer. The EC50 value of the title compound was calculated using the dose-response curve of fluorescence intensity variation.

T1 sequence (O14842 whole entry): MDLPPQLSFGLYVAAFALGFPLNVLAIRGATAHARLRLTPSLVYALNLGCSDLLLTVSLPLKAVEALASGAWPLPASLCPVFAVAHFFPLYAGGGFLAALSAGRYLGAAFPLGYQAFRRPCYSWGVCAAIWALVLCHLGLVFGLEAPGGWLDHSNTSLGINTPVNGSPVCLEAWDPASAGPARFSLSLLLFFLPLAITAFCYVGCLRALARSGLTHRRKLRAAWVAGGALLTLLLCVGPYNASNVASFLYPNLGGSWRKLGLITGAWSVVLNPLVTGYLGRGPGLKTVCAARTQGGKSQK

With `CCOCCOc1cc(C)c(-c2cccc(COc3ccc(C4CC(=O)N[S+]4[O-])cc3)c2)c(C)c1` (mixture of isomers) [Example 1, 5-[4-[[3-[4-(2-ethoxyethoxy)-2,6-dimethylphenyl]phenyl]methoxy]phenyl]-1-oxo-1,2-thi azolidin-3-one], the EC50 is less than 300 nM.

`Cc1cc(OCC[C@@H](C)O)cc(C)c1-c1cccc(COc2ccc(C3CC(=O)N[S+]3[O-])cc2)c1` (mixture of isomers) [Example 12, 5-[4-[[3-[4-[(3R)-3-hydroxybutoxy]-2,6-dimethylphenyl]phenyl]methoxy]phenyl]-1-oxo-1,2-thiazolidin-3-one]: the EC50 was less than 300 nM.

Turning to `Cc1cc(OCCCS(C)(=O)=O)cc(C)c1-c1cccc(COc2ccc(C3CC(=O)NS3(=O)=O)cc2)c1` (racemic) [Example 19, 5-[4-[[3-[2,6-dimethyl 4-(3-methylsulfonylpropoxy)phenyl]phenyl]methoxy]phenyl]-1,1-dioxo-1,2-thiazolidin-3-one], the concentration for a half-maximal effect (EC50) was less than 300 nM.

`Cc1cc(OCCC(C)(C)O)nc(C)c1-c1cccc(COc2ccc(C3CC(=O)NS3(=O)=O)cc2)c1` (racemic) [Example 20, 5-[4-[[3-[6-(3-hydroxy-3-methylbutoxy)-2,4-dimethylpyridin-3-yl]phenyl]methoxy]phenyl]-1,1-dioxo-1,2-thiazolidin-3-one] returned an EC50 of 300 to 3000 nM.

Compound `Cc1cccc(C)c1-c1cccc(COc2ccc(C3CC(=O)NS(=O)(=O)N3)cc2)c1` (racemic) [Example 21, 5-[4-[[3-(2,6-dimethylphenyl)phenyl]methoxy]phenyl]-1,1-dioxo-1,2,6-thiadiazinan-3-one] returned a concentration for a half-maximal effect (EC50) of less than 300 nM.

`Cc1cccc(C)c1-c1cccc(COc2ccc(C3CC(=O)NS(=O)(=O)C3)cc2)c1` (racemic) [Example 22, 5-[4-[[3-(2,6-dimethylphenyl)phenyl]methoxy]phenyl]-1,1-dioxo-1,2-thiazinan-3-one] displayed a half-maximal effective concentration (EC50) of less than 300 nM.

`Cc1nc(OCCC(C)(C)O)ccc1-c1cccc2c1CC[C@H]2Oc1ccc(C2CC(=O)N[S+]2[O-])cc1` (single isomer, unassigned) [23(A)-b] came in with an EC50 of 300 to 3000 nM.

`Cc1cc(OCCC(C)(C)O)cc(C)c1-c1cccc2c1CC[C@H]2Oc1ccc(C2CC(=O)N[S+]2[O-])cc1` (single isomer, unassigned) [24(A)-a]: the EC50 is less than 300 nM.

As for `CCOCCOc1cc(C)c(-c2cccc(COc3ccc(C4CC(=O)N[S+]4[O-])cc3)c2)c(C)c1F` (stereo not shown) [Example 2, 5-[4-[[3-[4-(2-ethoxyethoxy)-3-fluoro-2,6-dimethylphenyl]phenyl]methoxy]phenyl]-1-oxo-1,2-thiazolidin-3-one], the half-maximal effective concentration (EC50) is less than 300 nM.

Turning to `Cc1cc(OCCC(C)(C)O)c(F)c(C)c1-c1cccc(COc2ccc(C3CC(=O)N[S+]3[O-])cc2)c1` (stereo not shown) [Example 3, 5-[4-[[3-[3-fluoro-4-(3-hydroxy-3-methylbutoxy)-2,6-dimethylphenyl]phenyl]methoxy]phenyl]-1-oxo-1,2-thiazolidin-3-one], the EC50 was less than 300 nM.

Compound `Cc1cc(OCCC(C)(C)O)cc(C)c1-c1cccc(COc2ccc(C3CC(=O)N[S+]3[O-])cc2)c1` (stereo not shown) [Example 4, 5-[4-[[3-[4-(3-hydroxy-3-methylbutoxy)-2,6-dimethylphenyl]phenyl]methoxy]phenyl]-1-oxo-1,2-thiazolidin-3-one] came in with an EC50 of less than 300 nM.

In the case of `Cc1cc(OCCCS(C)(=O)=O)nc(C)c1-c1cccc(COc2ccc(C3CC(=O)N[S+]3[O-])cc2)c1` (stereo not shown) [Example 5, 5-[4-[[3-[2,4-dimethyl-6-(3-methylsulfonylpropoxy)pyridin-3-yl]phenyl]methoxy]phenyl]-1-oxo-1,2-thiazolidin-3-one], the EC50 was less than 300 nM.

For `Cc1cc(OCCC(C)(C)O)nc(C)c1-c1cccc(COc2ccc(C3CC(=O)N[S+]3[O-])cc2)c1` (stereo not shown) [Example 6, 5-[4-[[3-[6-(3-hydroxy-3-methylbutoxy)-2,4-dimethylpyridin-3-yl]phenyl]methoxy]phenyl]-1-oxo-1,2-thiazolidin-3-one], the half-maximal effective concentration (EC50) is less than 300 nM.

Take `Cc1cc(-c2cccc(COc3ccc(C4CC(=O)N[S+]4[O-])cc3)c2)c(C)cc1OCCC(C)(C)O` (stereo not shown) [Example 7, 5-[4-[[3-[4-(3-hydroxy-3-methylbutoxy)-2,5-dimethylphenyl]phenyl]methoxy]phenyl]-1-oxo-1,2-thiazolidin-3-one]: the EC50 is less than 300 nM.

The compound `Cc1cc(OCCCO)cc(C)c1-c1cccc(COc2ccc(C3CC(=O)N[S+]3[O-])cc2)c1` (stereo not shown) [Example 8, 5-[4-[[3-[4-(3-hydroxypropoxy)-2,6-dimethylphenyl]phenyl]methoxy]phenyl]-1-oxo-1,2-thiazolidin-3-one] came in with a concentration for a half-maximal effect (EC50) of less than 300 nM.

Consider `Cc1cc(OC[C@H](O)CO)cc(C)c1-c1cccc(COc2ccc(C3CC(=O)N[S+]3[O-])cc2)c1` (stereo partly drawn) [Example 9, 5-[4-[[3-[4-[(2R)-2,3-dihydroxypropoxy]-2,6-dimethylphenyl]phenyl]methoxy]phenyl]-1-oxo-1,2-thiazolidin-3-one], for which the EC50 was less than 300 nM.

Take `Cc1cc(OCC(CO)CO)cc(C)c1-c1cccc(COc2ccc(C3CC(=O)N[S+]3[O-])cc2)c1` (stereo not shown) [Example 10, 5-[4-[[3-[4-[3-hydroxy-2-(hydroxymethyl)propoxy]-2,6-dimethylphenyl]phenyl]methoxy]phenyl]-1-oxo-1,2-thiazolidin-3-one]: the EC50 is less than 300 nM.

In turn, `Cc1cc(OCCCN)cc(C)c1-c1cccc(COc2ccc(C3CC(=O)N[S+]3[O-])cc2)c1` (stereo not shown) [Example 11, 5-[4-[[3-[4-(3-aminopropoxy)-2,6-dimethylphenyl]phenyl]methoxy]phenyl]-1-oxo-1,2-thiazolidin-3-one trifluoroacetic acid salt] yielded a concentration giving a half-maximal response (EC50) of less than 300 nM.

In turn, `Cc1cc(OCCCS(C)(=O)=O)cc(C)c1-c1cccc(COc2ccc(C3CC(=O)N[S+]3[O-])cc2)c1` (stereo not shown) [Example 13, 5-[4-[[3-[2,6-dimethyl 4-(3-methylsulfonylpropoxy)phenyl]phenyl]methoxy]phenyl]-1-oxo-1,2-thiazolidin-3-one] had a concentration for a half-maximal effect (EC50) of less than 300 nM.

The compound `Cc1cccc(C)c1-c1cccc(COc2ccc(N3CC(=O)NS3(=O)=O)cc2)c1` [Example 14, 5-[4-[[3-(2,6-dimethylphenyl)phenyl]methoxy]phenyl]-1,1-dioxo-1,2,5-thiadiazolidin-3-one] displayed a concentration giving a half-maximal response (EC50) of less than 300 nM.

`Cc1cc(OCCCS(C)(=O)=O)cc(C)c1-c1cccc(COc2ccc(N3CC(=O)NS3(=O)=O)cc2)c1` [Example 15, 5-[4-[[3-[2,6-dimethyl-4-(3-methylsulfonylpropoxy)phenyl]phenyl]methoxy]phenyl]-1,1-dioxo-1,2,5-thiadiazolidin-3-one]: the EC50 was 300 to 3000 nM.

With `Cc1cccc(C)c1-c1cccc(COc2ccc(N3CC(=O)NS3(=O)=O)c(Cl)c2)c1` [Example 16, 5-[2-chloro-4-[[3-(2,6-dimethylphenyl)phenyl]methoxy]phenyl]-1,1-dioxo-1,2,5-thiadiazolidin-3-one], the EC50 is less than 300 nM.

`Cc1cc(OCc2cccc(-c3c(C)cccc3C)c2)ccc1N1CC(=O)NS1(=O)=O` [Example 17, 5-[4-[[3-(2,6-dimethylphenyl)phenyl]methoxy]-2-methylphenyl]-1,1-dioxo-1,2,5-thiadiazolidin-3-one] came in with an EC50 of less than 300 nM.

`Cc1cccc(C)c1-c1cccc(COc2ccc(N3C(C)C(=O)NS3(=O)=O)cc2)c1` (stereo not shown) [Example 18, 5-[4-[[3-(2,6-dimethylphenyl)phenyl]methoxy]phenyl]-4-methyl-1,1-dioxo-1,2,5-thiadiazolidin-3-one] registered an EC50 of 300 to 3000 nM.

For the compound `N#Cc1ccc(Oc2cccc3c2CC[C@H]3Oc2ccc(C3CC(=O)NS(=O)(=O)N3)cc2)cc1` (stereo partly drawn) [Example 26, 4-(((1R)-1-(4-(1,1-dioxo-1,2,6-thiadiazinan-3-on-5-yl)phenoxy)-2,3-dihydro-1H-inden-4-yl)oxy)benzonitrile], the concentration for a half-maximal effect (EC50) is less than 300 nM.

For the compound `O=C1CC(c2ccc(O[C@@H]3CCc4c(Oc5ccccc5)cccc43)cc2)[S+]([O-])N1` (stereo partly drawn) [Example 27, 5-(4-(((R)-4-phenoxy-2,3-dihydro-1H-inden-1-yl)oxy)phenyl)-1-oxo-1,2-thiazolidin-3-one], the EC50 was less than 300 nM.

For the compound `O=C1CC(c2ccc(OC3COc4c3cccc4C(F)(F)F)cc2)[S+]([O-])N1` (stereo not shown) [Example 28], the EC50 was 300 to 3000 nM.

The compound `O=C1CC(c2ccc(O[C@@H]3CCc4c(Br)cccc43)cc2)[S+]([O-])N1` (stereo partly drawn) [Example 29, 5-(4-(((R)-4-bromo-2,3-dihydro-1H-inden-1-yl)oxy)phenyl)-1-oxo-1,2-thiazolidin-3-one] showed an EC50 of less than 300 nM.

`Cc1cc(OCCCS(C)(=O)=O)cc(C)c1-c1cccc(COc2ccc(C3CC(=O)NS(=O)(=O)C3)cc2)c1` (stereo not shown) [Example 31, 5-[4-[[3-[2,6-dimethyl 4-(3-methylsulfonylpropoxy)phenyl]phenyl]methoxy]phenyl]-1,1-dioxo-1,2-thiazinan-3-one] came in with an EC50 of less than 300 nM.

`N#Cc1ccc(Oc2cccc3c2CC[C@H]3Oc2ccc(C3CC(=O)NS(=O)(=O)C3)cc2)cc1` (stereo partly drawn) [Example 32, 4-(((1R)-1-(4-(1,1-dioxo-3-oxo-1,2-thiazinan-5-yl)phenoxy)-2,3-dihydro-1H-inden-4-yl)oxy)benzonitrile] gave a 50% effective concentration (EC50) of less than 300 nM.

The compound `O=C1CC(c2ccc(O[C@@H]3CCc4c(Br)cccc43)cc2)CS(=O)(=O)N1` (stereo partly drawn) [Example 33, 5-(4-(((R)-4-bromo-2,3-dihydro-1H-inden-1-yl)oxy)phenyl)-1,1-dioxo-1,2-thiazinan-3-one] registered a concentration for a half-maximal effect (EC50) of less than 300 nM.

Source of the values: patent US9040525B2, “Cyclic amide derivative” (MOCHIDA PHARMACEUTICAL CO., LTD., priority 2010, dated 2015).
